The text below walks through data of US20130345215A1, “PYRAZOLOPYRIMIDONE AND PYRAZOLOPYRIDONE INHIBITORS OF TANKYRASE” (Genentech, Inc., priority 2012, published 2013).

Usually IC50 stands for the midpoint of a concentration-inhibition curve.

One test concerns the target T1, Tankyrase 1 (TNKS1) (Homo sapiens, UniProt O95271).
T1 construct: His6-TNKS1, MW=28.2 KDa (construct: 1088-1327, 1266M)
As to the kind of experiment: μHTS-TNKS-IWR2 TR-FRET Binding Assay (Example 118), His6-TNKS1. As to the method: (§1) μHTS-TNKS-IWR2 TR-FRET Binding Assay (10 μL/well in BD1536-well plate, a single point)
(§2) Reagents and Stock Solutions
(§3) Biotin-4-((1S,2R,6S,7R)-3,5-Dioxo-4-aza-tricyclo[5.2.1.0*2,6]dec-8-en-4-yl)-N-(4-methyl-quinolin-8-yl)-benzamide (Biotin-IWR2): 10 mM Biotin-IWR2 stock in DMSO, stored at −20° C.
(XAV939) in DMSO, stored at −20° C.
(§4) Assay buffer 1a (AB1a) for TNKS dilution: 50 mM Tris, pH 7.4, 100 mM sodium chloride solution, 1 mM magnesium chloride solution, 1 mM DL-dithiothreitol solution, 0.2 mg/mL bovine serum albumin solution, 0.025% NP-40.
(§5) Assay buffer 1b (AB1b) for Biotin-IWR2 dilution: 50 mM Tris, pH 7.4, 100 mM sodium chloride solution, 1 mM magnesium chloride solution, 1 mM DL-dithiothreitol solution, 0.2 mg/mL bovine serum albumin solution, 0.05% NP-40
(§6) Assay buffer 1c (AB1c) for compound dilution: 50 mM Tris, pH 7.4, 100 mM sodium chloride solution, 1 mM magnesium chloride solution, 1 mM DL-dithiothreitol solution, 0.2 mg/mL bovine serum albumin solution
(§7) Assay buffer 2 (AB2) for Eu/APC: 50 mM Tris, pH 7.4, 100 mM sodium chloride solution, 1 mM magnesium chloride solution, 0.2 mg/mL bovine serum albumin solution
(§8) Reagent Stock Solution Preparation
(§9) Prepare BLANK well stock solution: 5% DMSO/AB1b buffer
(§10) Prepare TNKS 1 stock solution (5× stock): 300 nM TNKS in AB1a buffer. (Alternatively, use TNKS2 or PARP1 stock solutions.)
Transfer 3 μL/well of above solution (solution 1,2,3) to an empty assay plate (BD1536-well plate) as follows: • TOTAL and cpd wells: Solution 1 (Biotin-IWR2): • BLANK wells: Solution 2 (No Biotin-IWR2): • POSITIVE CONTROL wells: Solution 3 (Biotin-IWR2+XAV939)
(§11) Transfer 3 μL/well of the above diluted compound solutions or compound dilution buffer to the above assay plate. Add 2 μL/well of 300 nM TNKS stock solution (4) to every well in the above assay plate. Centrifuge the assay plate at 2100 rpm for 2 min. Incubate the assay plate at 26° C. for 30 minutes. Add 2 μL/well 3.5 nMEu/50 nM APC solution (5) to every well in the above assay plate. Centrifuge the assay plate at 2100 rpm for 2 min. Incubate the assay plate at 26° C. for 60 min.

In another test the target is T2, tankyrase 2 (TNKS2) (Homo sapiens, UniProt Q9H2K2).
T2 construct: His6-tankyrase 2 (construct: 934-1166) (His6-TNKS2)
As to the kind of experiment: μHTS-TNKS-IWR2 TR-FRET Binding Assay (Example 118), His6-TNKS2 substituted. To be noted: procedure in Example 118 with His6-TNKS2. The protocol:
as §1, §2
Tankyrase 1 (TNKS1): 184.3 μM=5.2 mg/mL His6-TNKS1, MW=28.2 KDa (construct: 1088-1327, 1266M) in 20 mM Tris pH 8, 150 mM NaCl, 10% glycerol, and 0.5 mM TCEP. Alternatively, His6-tankyrase 2 (construct: 934-1166) (His6-TNKS2) or His6-PARP1 (full length) can be substituted for His6-TNKS 1.
as §3
Positive control: 10 mM 2-(4-Trifluoromethyl-phenyl)-3,5,7,8-tetrahydro-thiopyrano[4,3-d]pyrimidin-4-one (XAV939) in DMSO, stored at −20° C.
APC-anti-His Ab: 8.50 μM SL-APC, 8.26 μM anti-6His antibody-SureLight APC (Columia Bioscience, Catalog Number D3-1711, Lot Number N01010-AAH04)
Assay plate: BD 1536-well, clear/black plate (Catalog Number 353255)
as §4, §5, §6, §7, §8
Prepare Biotinylated IWR2 stock solution (3.33× stock) for TOTL and compound wells: 200 nM Biotin-IWR2 in 5% DMSO/AB1b buffer
as §9
Prepare POSITIVE CONTROL well stock solution (3.33× stock): 200 nM XAV939 in 200 nM Biotin-IWR2/5% DMSO/AB1b buffer
as §10
Prepare Eu/APC stock solution (5× stock): 3.5 nM Eu-SA/50 nM APC-His6Ab in AB2 buffer.
Add 25 μL/well 1.5% DMSO/AB1c buffer in each compound well to the compound concentration at 74 μM in 8.8% DMSO/AB1c buffer or in the 2 μL DMSO CONTROL wells (BLANK, TOTAL and POSITIVE wells) in the compound plate. Transfer 3 μL/well of above solution (solution 1,2,3) to an empty assay plate (BD1536-well plate) as follows: • TOTAL and cpd wells: Solution 1 (Biotin-IWR2): • BLANK wells: Solution 2 (No Biotin-IWR2): • POSITIVE CONTROL wells: Solution 3 (Biotin-IWR2+XAV939)
as §11, with “60 min. Read the assay plate immediately at excitation wavelength of 330 nm and emission wavelength of […] in time resolved fluorescence mode.” for “60 min.”
XAV939 (+ve control): 60 nM at ˜70% Inhibition
General Library compounds: 22.23 μM in 4% DMSO
For orientation: Time-resolved FRET reads energy transfer from a long-lived donor to a nearby acceptor.

T1 sequence (O95271 1088-1327): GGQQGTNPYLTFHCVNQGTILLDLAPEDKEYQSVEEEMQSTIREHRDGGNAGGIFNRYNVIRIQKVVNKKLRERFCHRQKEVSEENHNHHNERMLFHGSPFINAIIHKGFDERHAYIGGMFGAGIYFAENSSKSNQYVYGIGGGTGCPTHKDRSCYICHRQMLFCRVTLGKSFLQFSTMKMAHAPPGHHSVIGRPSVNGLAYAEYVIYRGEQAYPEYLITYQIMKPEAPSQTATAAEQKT
T2 sequence (Q9H2K2 934-1166): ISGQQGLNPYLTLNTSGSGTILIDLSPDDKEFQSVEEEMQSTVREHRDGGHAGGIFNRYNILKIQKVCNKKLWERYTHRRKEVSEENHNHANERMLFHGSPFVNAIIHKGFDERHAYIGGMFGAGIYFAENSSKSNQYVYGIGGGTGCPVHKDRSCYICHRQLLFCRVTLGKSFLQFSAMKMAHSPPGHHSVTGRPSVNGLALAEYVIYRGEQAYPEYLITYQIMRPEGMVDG

As to `CCOC(=O)c1ccc(N2CCN(c3nc4c(cnn4C)c(=O)[nH]3)CC2)cc1` [Compound I-41, ethyl 4-[4-(1-methyl-4-oxo-5H-pyrazolo[3 4-d]pyrimidin-6-yl)piperazin-1-yl]benzoate], the half-inhibitory concentration (IC50) on Tankyrase 1 (TNKS1) was 107 nM; on tankyrase 2 (TNKS2), 135 nM.
The matching figures for `Cn1ncc2c(=O)[nH]c(N3CCN(c4c(Cl)cccc4Cl)CC3)nc21` [Compound I-42, 6-[4-(2 6-dichlorophenyl)piperazin-1-yl]-1-methyl-5H-pyrazolo[3 4-d]pyrimidin-4-one]: 24 nM and 26.3 nM.
The matching figures for `COc1cccnc1N1CCN(c2nc3c(cnn3C)c(=O)[nH]2)CC1` [Compound I-43, 6-[4-(3-methoxy-2-pyridyl)piperazin-1-yl]-1-methyl-5H-pyrazolo[3 4-d]pyrimidin-4-one]: 47 nM and 55.3 nM.
`Cn1ncc2c(=O)[nH]c(N3CCN(c4ccc(C(C)(C)O)cc4F)CC3)nc21` [Compound I-44, 6-[4-[2-fluoro-4-(1-hydroxy-1-methyl-ethyl)phenyl]piperazin-1-yl]-1-methyl-5H-pyrazolo[3 4-d]pyrimidin-4-one]: the IC50 at Tankyrase 1 (TNKS1) worked out at 34 nM; at tankyrase 2 (TNKS2), 95.3 nM.
For the compound `CCC(=O)c1cc(F)c(N2CCN(c3nc4c(cnn4C)c(=O)[nH]3)CC2)c(F)c1` [Compound I-45, 6-[4-(2 6-difluoro-4-propanoyl-phenyl)piperazin-1-yl]-1-methyl-5H-pyrazolo[3 4-d]pyrimidin-4-one], the IC50 at Tankyrase 1 (TNKS1) was determined as 28 nM; at tankyrase 2 (TNKS2), 33 nM.
Consider `Cn1ncc2c(=O)[nH]c(N3CCN(c4ccnc(Cl)c4Cl)CC3)nc21` [Compound I-46, 6-[4-(2 3-dichloro-4-pyridyl)piperazin-1-yl]-1-methyl-5H-pyrazolo[3 4-d]pyrimidin-4-one], for which the IC50 on Tankyrase 1 (TNKS1) was 61 nM; on tankyrase 2 (TNKS2), 93.9 nM.
In the case of `Cn1ncc2c(=O)[nH]c(N3CCN(c4ccc(S(N)(=O)=O)cc4F)CC3)nc21` [Compound I-48, 3-fluoro-4-[4-(1-methyl-4-oxo-5H-pyrazolo[3 4-d]pyrimidin-6-yl)piperazin-1-yl]benzenesulfonamide], the values for the 50% inhibitory concentration (IC50) on Tankyrase 1 (TNKS1) and at tankyrase 2 (TNKS2) were 34 nM and 49.2 nM, respectively.
Turning to `Cn1ncc2c(=O)[nH]c(N3CCN(c4c(F)cc([N+](=O)[O-])cc4F)CC3)nc21` [Compound I-49, 6-[4-(2 6-difluoro-4-nitro-phenyl)piperazin-1-yl]-1-methyl-5H-pyrazolo[3 4-d]pyrimidin-4-one], the IC50 on Tankyrase 1 (TNKS1) came to 34 nM; on tankyrase 2 (TNKS2), 32.6 nM.
`Cn1ncc2c(=O)[nH]c(-c3ccc(C(F)(F)F)cn3)nc21` [Compound I-50, 1-methyl-6-[5-(trifluoromethyl)-2-pyridyl]-5H-pyrazolo[3 4-d]pyrimidin-4-one]: the IC50 is 286 nM at Tankyrase 1 (TNKS1) and 325 nM on tankyrase 2 (TNKS2).
In the case of `Cn1ncc2c(=O)[nH]c(N3CCN(c4c(F)cccc4F)CC3)cc21` [Compound I-51, 6-[4-(2 6-difluorophenyl)piperazin-1-yl]-1-methyl-5H-pyrazolo[4 3-c]pyridin-4-one], the IC50 came out at 25 nM at Tankyrase 1 (TNKS1) and 23.1 nM at tankyrase 2 (TNKS2).
The matching figures for `Cn1ncc2c(=O)[nH]c(N3CCC(C#N)(c4ccccn4)CC3)nc21` [Compound I-52, 1-(1-methyl-4-oxo-5H-pyrazolo[3 4-d]pyrimidin-6-yl)-4-(2-pyridyl)piperidine-4-carbonitrile]: 47 nM and 54.5 nM.
The matching figures for `COCCOc1cc(F)c(N2CCN(c3cc4c(cnn4C)c(=O)[nH]3)CC2)c(F)c1` [Compound I-53, 6-[4-[2 6-difluoro-4-(2-methoxyethoxy)phenyl]piperazin-1-yl]-1-methyl-5H-pyrazolo[4 3-c]pyridin-4-one]: 26 nM and 19.3 nM.
`Cn1ncc2c(=O)[nH]c(N3CCN(c4c(F)cc(N)cc4F)CC3)nc21` [Compound I-54, 6-[4-(4-amino-2 6-difluoro-phenyl)piperazin-1-yl]-1-methyl-5H-pyrazolo[3 4-d]pyrimidin-4-one]: the IC50 on Tankyrase 1 (TNKS1) is 21 nM; on tankyrase 2 (TNKS2) it was 25 nM.
In the case of `COCCOc1cc(F)cc(N2CCN(c3nc4c(cnn4C)c(=O)[nH]3)CC2)c1` [Compound I-55, 6-[4-[3-fluoro-5-(2-methoxyethoxy)phenyl]piperazin-1-yl]-1-methyl-5H-pyrazolo[3 4-d]pyrimidin-4-one], the figures for the IC50 on Tankyrase 1 (TNKS1) and on tankyrase 2 (TNKS2) were 114 nM and 147 nM, respectively.
With `Cn1ncc2c(=O)[nH]c(N3CCN(c4c(F)cc(C#N)cc4F)CC3)nc21` [Compound I-56, 3 5-difluoro-4-[4-(1-methyl-4-oxo-5H-pyrazolo[3 4-d]pyrimidin-6-yl)piperazin-1-yl]benzonitrile], the IC50 on Tankyrase 1 (TNKS1) was determined as 55 nM; at tankyrase 2 (TNKS2), 63.2 nM.
In the same order, the values of `Cn1ncc2c(=O)[nH]c(N3CCN(c4cc(O)cc(F)c4F)CC3)nc21` [Compound I-57, 6-[4-(2 3-difluoro-5-hydroxy-phenyl)piperazin-1-yl]-1-methyl-5H-pyrazolo[3 4-d]pyrimidin-4-one] are 66 nM and 56.4 nM.
